These results are taken from PMC10856758, “New Dual Inhibitors of Tyrosyl-DNA Phosphodiesterase 1 and 2 Based on Deoxycholic Acid: Design, Synthesis, Cytotoxicity, and Molecular Modeling” (Molecules, 2024).

Where two headings read alike, the source gives them in different places.

Data set [1] addresses T1, TDP1 (Homo sapiens, UniProt Q9NUW8). The data set is described as follows: TDP1 activity, real-time fluorescence oligonucleotide biosensor (FAM/BHQ1). Type of data set: biochemical. The conditions noted are these: 1.5 nM TDP1, 50 nM biosensor. An excerpt:
To detect TDP1 activity in real time, we used an oligonucleotide biosensor based on the ability of TDP1 to remove fluorophore quenchers from the 3’ end of DNA [29]. The hexadecamer oligonucleotide carried 5(6)-carboxyfluorescein (FAM) at the 5’ end as a fluorophore and Black Hole Quencher-1 (BHQ1) at the 3’ end as a fluorophore quencher. TDP1 inhibitors prevent the removal of fluorophore quenchers, resulting in a decrease in fluorescence intensity.
TDP1 activity was detected as described in [31]. We measured the fluorescence intensity after quencher cleavage via a fluorophore quencher–coupled DNA oligonucleotide […]. The reaction mixtures contained TDP1 buffer (50 mM Tris, HCl pH 8.0, 50 mM NaCl, and 7 mM β-mercaptoethanol), 50 nM biosensor, and different concentrations of inhibitors. The reaction was triggered by adding TDP1 to a final concentration of 1.5 nM. The fluorophore quencher–coupled DNA oligonucleotide was synthesized in the Laboratory of Nucleic Acid Chemistry at the Institute of Chemical Biology and Fundamental Medicine (Novosibirsk, Russia).
The reaction mixtures were incubated at room temperature in a 96-well plate, and fluorescence was measured using the POLARstar OPTIMA fluorimeter (BMG LABTECH, GmbH, Ortenberg, Germany) every 55 s during the linear phase (here, data from minute 0 to minute 8). […] Data calculation was carried out using the software MARS Data Analysis 2.0 (BMG LABTECH, Ortenberg, Germany).

Data set [2] deals with T2, TDP2 (Homo sapiens, UniProt O95551).
T2 sequence (O95551 1-362): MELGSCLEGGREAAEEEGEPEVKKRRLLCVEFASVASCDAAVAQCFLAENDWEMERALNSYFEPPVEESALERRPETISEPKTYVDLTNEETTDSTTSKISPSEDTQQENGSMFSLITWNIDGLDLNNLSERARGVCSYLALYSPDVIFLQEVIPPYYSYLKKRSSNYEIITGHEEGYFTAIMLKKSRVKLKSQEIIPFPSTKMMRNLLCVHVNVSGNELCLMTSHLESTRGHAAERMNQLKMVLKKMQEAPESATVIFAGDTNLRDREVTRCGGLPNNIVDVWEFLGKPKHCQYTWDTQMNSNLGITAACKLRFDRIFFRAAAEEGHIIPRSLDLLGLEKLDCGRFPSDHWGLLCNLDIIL
The data set is described as follows: Gel-based TDP2 activity assay (removal of 5'-tyrosine, PAGE). Type of data set: biochemical. To be noted: for IC50: 200 nM TDP2, 100 nM substrate, 15 min 37 °C; for remaining activity at 500 µM: read-out: TDP2, % (residual activity of TDP2). As for the experimental part:
We investigated the activity against the TDP2 enzyme of compounds 3d–f and 4a–e at 500 μM (Table 1). The basis for testing TDP 2 was its ability to remove a tyrosine residue from the 5’ end of an oligonucleotide substrate. The TDP2 reaction products were separated in a polyacrylamide gel (PAGE) with formamide denaturation.
TDP2 activity was detected as described in [42]. We separated the products of the reaction of cleavage of the tyrosine residue from the 5′-end of the 3e FAM-labeled oligonucleotide in a polyacrylamide gel under denaturing conditions. […] The reaction mixtures contained TDP1 buffer ([…] Tris-HCl pH 8.0, 40 mM NaCl, 1 mM DTT, 0.05 mg/mL BSA (Sigma-Aldrich, St. Luis, MO, USA)), 100 nM oligonucleotide substrate, and inhibitors. The reaction was triggered by adding TDP2 to a final concentration of 200 nM.
The reaction mixtures were incubated for 15 min at 37 °C. The reaction products were analyzed using Typhoon FLA 9500 phosphorimager (GE Healthcare, Boston, MA, USA). Each experiment was carried out in three independent replicates. The data were analyzed with QuantityOne 4.6.7 software.

A short description of a further data set: in vitro. The conditions noted are these: human, HeLa CC50.
Data set [3] has as its target T1, TDP1. Details: method as in PMID 33221302. To be noted: earlier DCA derivatives; cited from earlier work.
For data set [4], the target named is T2, TDP2. Details: method as in PMID 35011303. To be noted: at ~1 mM concentration; cited from earlier work.
Data set [5] can be described thus: MTT cytotoxicity/antiproliferative assay. To be noted: human, HeLa cells, HeLa CC50, 72 h of treatment, MTT assay. In general terms: Tetrazolium assays rely on reduction of a dye to a coloured formazan, in cell work by metabolically active cells.
Description: (§1) Topotecan (TOP1 inhibitor) and etoposide (TOP2 inhibitor) were used to study the effect combined with DCA derivatives on the metabolic activity of cells. […] Topotecan (0.5 µM) and etoposide (5 µM) were used at a concentration with low toxicity (>70% of living cells), selected based on preliminary experiments.
(§2) The cells were seeded in 96-well plates in quadruplicates at 3 × 10^3 cells/well. The cells were grown in Dulbecco’s Modified Eagle—Medium (DMEM) (AppliChem, Darmstadt, Germany) with Antibiotic-Antimycotic (100 IU/mL penicillin, 0.1 μg/mL streptomycin, 0.25 µg/mL amphotericin) (1×) (Gibco, Grand Island, NE, USA) and 10% of fetal bovine serum (Gibco, Grand Island, NE, USA) in a 5% CO2 atmosphere at 37 °C. After the formation of a 50% monolayer, tested compounds were added to the medium, and the cell culture was monitored for 72 h at 37 °C. DCA derivatives were dissolved in 100% DMSO and topotecan/etoposide in water. Control cells were grown in the presence of the same volume of DMSO, those cells with the investigated compound. […] (MTT) solution (10 μL, 5 mg/mL) were added to each well and the cells were incubated for an additional 2 h. Then, the medium was removed from the wells, and 100 μL of iso-propanol was added to dissolve blue formazan crystals formed within live cells; the optical density was measured at test and reference wavelengths (570 nm and 620 nm, respectively) using CLARIOstar fluorimeter (BMG LABTECH, GmbH, Ortenberg, Germany). The experiments were repeated at least three times.
Data set [6] has as its system HeLa cells. Put plainly: MTT cytotoxicity/antiproliferative assay. The conditions noted are these: low-toxicity concentration, preliminary experiments.
Description: as §1, §2
Data set [7] relates to HeLa cells. The data set is described as follows: MTT assay, combination with topotecan or etoposide. To be noted: with 0.5 μM topotecan or 5 µM etoposide. It is filed as cell-based, human. As for the experimental part:
Next, the ability of the selected compounds to enhance the cytotoxic effect of topotecan and etoposide on the HeLa cell line was studied. CC50 values (50% cytotoxic concentration) were also calculated for the test compounds in the presence of topotecan or etoposide at fixed concentrations. For evaluation, three independent MTT assays were performed as described above with test substances in combination with topotecan at a final concentration of 0.5 μM and etoposide at a final concentration of 5 μM per well.
Figure 2 The combined action of compounds 3d–e and 4d–e with 0.5 μM topotecan (Tpc, (A)) and 5 µM etoposide (Eto, (B)) on the survival of HeLa cells. The error bars show standard deviations.

Data set [8] concerns HeLa cells. To be noted: human, 72 h.
Description: as §1, §2

T1 sequence (Q9NUW8 whole entry): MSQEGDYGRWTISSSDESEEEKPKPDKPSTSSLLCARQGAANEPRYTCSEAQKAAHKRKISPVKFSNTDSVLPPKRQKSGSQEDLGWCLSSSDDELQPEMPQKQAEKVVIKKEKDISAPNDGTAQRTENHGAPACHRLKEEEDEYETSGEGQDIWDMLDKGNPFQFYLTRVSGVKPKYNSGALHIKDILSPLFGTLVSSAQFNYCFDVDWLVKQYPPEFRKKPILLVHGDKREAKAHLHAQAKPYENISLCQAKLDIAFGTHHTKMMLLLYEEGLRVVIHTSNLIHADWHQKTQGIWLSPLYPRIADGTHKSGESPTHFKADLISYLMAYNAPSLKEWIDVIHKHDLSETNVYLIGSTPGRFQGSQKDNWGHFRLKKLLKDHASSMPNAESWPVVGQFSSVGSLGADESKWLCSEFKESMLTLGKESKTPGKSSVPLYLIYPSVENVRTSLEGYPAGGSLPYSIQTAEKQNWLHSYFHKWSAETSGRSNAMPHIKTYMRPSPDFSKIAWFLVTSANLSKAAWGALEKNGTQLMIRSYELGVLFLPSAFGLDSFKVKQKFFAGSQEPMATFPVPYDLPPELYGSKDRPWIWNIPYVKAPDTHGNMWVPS
Description for in vitro: as §1, §2

The term IC50 denotes the midpoint of a concentration-inhibition curve. A word on the melting point: it is the temperature, or range, at which the solid turns liquid. With `COC(=O)CCC(C)C1CCC2C3CCC4CC(O)(CSc5nc6cc(C)ccc6[nH]5)CCC4(C)C3CC(O)C12C` (stereo not shown) [4d], the melting point is 112.1 °C (dec.). For the same compound, the IC50 against TDP1 [1] turned out to be 0.94 ± 0.04 µM. Moreover, at TDP2 [2], the IC50 was 218 ± 7 µM. Moreover, the remaining activity at 500 µM at TDP2 [2] (at 500 µM compound) was ~14%. This compound also came in with a CC50 at 72 h in “in vitro” of 50 ± 13 µM.

Turning to `COC1CCC2(C)C(CCC3C2CC(OC)C2(C)C(C(C)CCC(=O)Nc4ccc(Br)cc4)CCC32)C1` (stereo not drawn) [3α,12α-bis-methoxy deoxycholic para-bromoanilide], on TDP1 [3], the IC50 is 0.27 µM and the “TDP1 IC50” value is “submicromolar range”.

For `Cc1ccc2[nH]c(SCC3(O)CCC4(C)C(CCC5C4CC(O)C4(C)C(C(C)CCC(=O)O)CCC54)C3)nc2c1` (stereo not shown) [3d], the melting point is 188.9 °C (dec.). On TDP1 [1], this compound had an IC50 of 25 ± 4 µM. For the same compound, half-maximal inhibition against TDP2 [2] (IC50) required 250 ± 30 µM. In addition, the “TDP2, % (residual activity of TDP2)” value on TDP2 [2] (at 500 µM compound, 500 µM) is given as 24 ± 5%. Besides, on TDP2 [2] (at 500 µM compound), the remaining activity at 500 µM is ~25%. Also, the CC50 at 72 h in “in vitro” was 63 ± 6 µM.

As to `CC(CCC(=O)NCCc1c[nH]c2ccccc12)C1CCC2C3CCC4CC(OCc5ccccc5)CCC4(C)C3CC(O)C12C` (stereo not drawn) [3α-benzyloxy deoxycholic tryptamide], on TDP1 [3], the IC50 is 0.24 µM and the “TDP1 IC50” value was “submicromolar range”. In addition, the TDP2 residual activity result on TDP2 [4] is reported as “less than 50%”.

With `CC(CCC(=O)O)C1CCC2C3CCC4CC(O)(CSc5nccn5C)CCC4(C)C3CC(O)C12C` (stereo not drawn) [3b, 3β,12α-Dihydroxy-3α-((1-methyl-1H-imidazol-2-ylthio)methyl)-5β-cholan-24-oic Acid], the melting point is 119.9 °C (dec.). At TDP1 [1], this compound gave an IC50 of 30 ± 7 µM. Also, on TDP2 [2] (at 500 µM compound), the remaining activity at 500 µM was ≥ 100%.

In the case of `COC(=O)CCC(C)C1CCC2C3CCC4CC(O)(CSc5nc6ccccc6o5)CCC4(C)C3CC(O)C12C` (stereo not shown) [4f], the melting point is 75 °C (dec.). For the same compound, the IC50 against TDP1 [1] worked out at 1.8 ± 0.5 µM. Besides, at TDP2 [2] (at 500 µM compound), the remaining activity at 500 µM was ≥ 100%.

For the compound `CC(CCC(=O)O)C1CCC2C3CCC4CC(O)(CSc5ccncc5)CCC4(C)C3CC(O)C12C` (stereo not drawn) [3a, 3β,12α-Dihydroxy-3α-((pyrydin-4-ylthio)methyl)-5β-cholan-24-oic Acid], the melting point is 119.6 °C (dec.). Further, on TDP1 [1], the IC50 amounted to 22 ± 2 µM. For the same compound, at TDP2 [2] (at 500 µM compound), the remaining activity at 500 µM was 92 ± 3%.

Consider `CC[C@@]1(O)C(=O)OCc2c1cc1n(c2=O)Cc2cc3c(CN(C)C)c(O)ccc3nc2-1` [Topotecan], for which the CC50 at 72 h in data set [5] amounted to 0.9 ± 0.1 µM. The living cells in the data set with HeLa cells [6] (topotecan alone at 0.5 µM) is > 70%.

Turning to `CC(CCC(=O)O)C1CCC2C3CCC4CC(O)(CSc5nc6ccccc6s5)CCC4(C)C3CC(O)C12C` (stereo not shown) [3e], the melting point was 106.2 °C (dec.). This compound returned an IC50 against TDP1 [1] of 14 ± 2 µM. The compound also gave an IC50 on TDP2 [2] of 76 ± 13 µM. At TDP2 [2] (at 500 µM compound), the remaining activity at 500 µM was ~2%. The compound also gave a CC50 at 72 h in “in vitro” of 75 ± 13 µM.

Take `COC(=O)CCC(C)C1CCC2C3CCC4CC(O)(CSc5nc6ccccc6s5)CCC4(C)C3CC(O)C12C` (stereo not shown) [4e]: the melting point is 74.5 °C (dec.). Moreover, the 50% inhibitory concentration (IC50) against TDP1 [1] came out at 0.63 ± 0.03 µM. In addition, the remaining activity at 500 µM on TDP2 [2] (at 500 µM compound) is ~49%. The “combined cytotoxic effect / cell survival under drug combinations” value in the data set with HeLa cells [7] was “most noticeable combined cytotoxic effect with both topotecan and etoposide”. The CC50 in the data set with HeLa cells [8] was > 100 µM. Further, the CC50 at 72 h in the data set “in vitro” was > 75 µM.

For `COc1cc([C@@H]2c3cc4c(cc3[C@@H](O[C@@H]3O[C@@H]5CO[C@@H](C)O[C@H]5[C@H](O)[C@H]3O)[C@H]3COC(=O)[C@H]23)OCO4)cc(OC)c1O` [Etoposide], the CC50 at 72 h in [5] is 6.2 ± 0.6 µM. For the same compound, the living cells in the data set with HeLa cells [6] (etoposide alone at 5 µM) is > 70%.

The compound `CC(CCC(=O)O)C1CCC2C3CCC4CC(O)(CSc5nc[nH]n5)CCC4(C)C3CC(O)C12C` (stereo not drawn) [3c, 3β,12α-Dihydroxy-3α-((1H-1,2,4-triazol-5-ylthio)methyl)-5β-cholan-24-oic Acid] yielded a melting point of 95.1 to 98.4 °C. The compound also gave a 50% inhibitory concentration (IC50) at TDP1 [1] of 32 ± 4 µM. The remaining activity at 500 µM on TDP2 [2] (at 500 µM compound) is ≥ 100%.
